The source of these data is patent US20230087766A1, “METHODS OF REACTIVATING LATENT HUMAN IMMUNODEFICIENCY VIRUS AND RELATED COMPOSITIONS” (priority 2017, published 2023).

Format in all cases: cell-based
Assay [1] concerns latent HIV (HIV LTR-driven transcription) in J-Lat A1 cells. The settings on record: for reactivation of latent HIV by epigenetic modifiers: 30 mM Na-Cro, 500 nM SAHA, 2 μM GSK343 or 5 μM AZA-dc; for reactivation of latent HIV by epigenetic modifiers / increase in reactivation of latent HIV in combination with Na-Cro as compared to single treatment: RT-qPCR; for increase in reactivation of latent HIV in combination with Na-Cro as compared to single treatment: J-Lat A1 cells pretreated with Na-Cro, then the LRA added. How it is done:
(§1) Cell culture: J-Lat Al cells (derived from Jurkat cells harboring HIV LTR-Tat-GFP gene) and U1 cells (promonocytic cell line harboring one copy of HIV genome with defective tat gene) were obtained from NIH AIDS Reagent Program and cultured at 37° C. with 5% CO2 in RPM11640 medium containing 10% FBS and 1% penicillin-streptomycin as previously described (see G. Jiang, et al. PLoS Pathogens 11, e1005066 (2015)).
(§2) For inhibiting ACSS2 and crotonylation, cells were pretreated with ACSS2 inhibitor, AR12 (SELLECK CHEMICALS™, Houston, Tex.), for 30 minutes, followed by Na-Cro treatment for 4 or 18 hours.
(§3) Real-Time PCR Analysis: HIV gene expression was measured using real-time PCR in J-Lat Al cells treated with LRAs. Total nucleic acid was extracted using RNEASY™ Kit, genomic DNA digested using DNase I and total RNA reverse transcribed using Superscript III to synthesize cDNA. […] […] TAMRA-3′ (SEQ ID NO:3).
In general terms: Quantitative PCR measures a nucleic acid by following its amplification.

Assay [2] relates to HIV LTR in J-Lat A1 cells. Nature of the assay: Chromatin immunoprecipitation (ChIP) at the HIV LTR. The following applies: pretreatment with AR12, then Na-Cro. The text has this:
FIG. 2 is a series of images and graphs showing that histone crotonylation by sodium crotonate addition re-programs histone tails at the HIV LTR. Panel A illustrates that Na-Cro addition increased global expression of H3K4Cro, H3K4Ac, and H3K18Ac while decreasing H3K27Me3. Panel B illustrates expression of transcription factors after Na-Cro addition in J-Lat Al cells. Panels C-E illustrate that Na-Cro addition re-programmed histone tails at the HIV LTR. Chromatin immunoprecipitation (ChIP) assay was performed by using anti-H3K4Cr, anti-H3K4Ac, and anti-H3K27Me3 antibodies after J-Lat Al cells were treated with 30 mM Na-Cro for 4 hours. PCR primers were specific for the HIV LTR region.
(§4) FIG. 7 is a series of graphs showing that induction of de-crotonylation of histone tail at HIV LTR is independent of SIRTs. Panel A illustrates that J-Lat Al cells were pre-treated with either 50 μM RSV or 1 mM NAM, followed by 30 mM Na-Cro addition to reactivate latent HIV expression. Untreated controls were compared with positive controls involving individual treatment of Na-Cro, RSV, or NAM. *, p<0.05; **, p<0.01 compared with control treatment. #, p<0.05 compared with Na-Cro treatment. Panel B illustrates that gene expression of sirt1 or sirt3 was measured by RT-qPCR in J-Lat Al cells treated with either 25 μM RSV, 50 μM RSV, or 1 mM NAM. *, p<0.05 and **, p<0.01 compared with control treatment. Panels C and D illustrate that histone crotonylation induces binding of SIRT3 and SIRT1 at the HIV LTR. J-Lat Al cells were treated with 30 mM Na-Cro for 4 hours and analyzed by ChIP assays using anti-SIRT1 or anti-SIRT3 antibodies. *, p<0.05 compared with control treatment.
Chromatin Immunoprecipitation (ChIP): J-Lat Al cells (2.5 to 5 million) were utilized in ChIP assays with anti-H3K18Ac, anti-H3K4Cr, anti-H3K27Me3, anti-H3K4Ac, anti-SIRT3 (CELL SIGNALING TECHNOLOGY®), and anti-SIRT1 (CELL SIGNALING TECHNOLOGY®) antibodies. ChIP assays were performed using […]® Kit from CELL SIGNALING TECHNOLOGY® as per the manufacturer's recommendations. Samples were cross-linked using formaldehyde and 150-1000 bp fragments were made using Micrococcal Nuclease digestion and 7 cycles of 30 seconds on/30 seconds off sonication. Antibodies were used to probe respective proteins. Purification of DNA was performed using the […]® Kit Protocol. Purified ChIP DNA was used in SYBR® Green qPCR using ChIP primers specific for HIV LTR.

In assay [3] the test system is latent HIV in primary CD4+ T cells from HIV-infected patients under suppressive ART. In words: HIV transcription by ddPCR in primary CD4+ T cells from HIV-infected patients. The settings on record: 6 hours. The procedure:
Panels A-C illustrate that primary CD4+ T cells were treated with […] PMA 2 plus 2 μg/ml ionomycin, 12 nM PEP005, 40 mM Na-Cro, or 12 nM PEP005 combined with 40 mM Na-Cro for 6 hours. Viral transcription from total RNA was analyzed by RT-ddPCR with primers targeting initiation (TAR region) (see panel A), elongation (long LTR) (see panel B), or full transcription (poly A region) (see panel C) of the HIV genome. Panel D illustrates a working model of epigenetic regulation of HIV latency/transcription by histone crotonylation.
To validate this finding in the ex vivo primary CD4+ T cells from patients the peripheral blood samples from 6 HIV-infected patients under suppressive ART were obtained. They had undetectable plasma viral load (<20 copies/ml plasma) and >400 CD4+ T cell number per […] (see Table 1). Primary CD4+ T cells were treated with PMA/Ionomycin, PEP005, Na-Cro, or PEP005 in combination with Na-Cro for 6 hours. HIV transcription following reactivation was measured by digital droplet PCR (ddPCR) targeting TAR region (initiation), long LTR region (elongation), or Poly A region (full transcription) of HIV genome (see G. Jiang, et al. PLoS pathogens 11, e1005066 (2015); P. Kaiser, et al. Journal of virological methods 242, 1-8 (2017); and L. Shan, et al. Journal of Virology 87, 6521-6525 (2013)).
Primary CD4+ T Cell Isolation, Treatment, and Digital Droplet PCR Assays: Peripheral blood samples were obtained from HIV-infected individuals (age ranging from 46-62 years old) on suppressive ART for >8 years (n=6). The plasma viral loads were below the detective level (<20 copies/ml plasma) and the average CD4+ T cell number was 664.4±180.5 cells/ml. The primary CD4+ T cells were isolated using the EASYSEP™ kit ([…]™ Technologies Inc., Vancouver, BC, Canada) as previously described (see G. Jiang, et al. PLoS pathogens 11, el 005066 (2015) and G. Jiang, et al. AIDS 28, 1555-1566 (2014)). The purified CD4+ T cells were plated at a density of 0.5-1×10^6 cells and treated with Control, 200 ng/ml PMA plus 2 μM lonomycin, 12 nM PEP005, 40 mM Na-Cro, or 12 nM PEP005 plus 40 mM Na-Cro for 6 hours. Cell pellets were collected for RNA isolation. Initiation, elongation, or full transcription of HIV was analyzed with ddPCR assays as reported before (see G. Jiang, et al. PLoS pathogens 11, e1005066 (2015); P. Kaiser, et al. Journal of virological methods 242, 1-8 (2017); and L. Shan, et al. Journal of virology 87, 6521-6525 (2013)).

Assay [4] deals with sirt3. In words: sirt3 gene expression by RT-qPCR in J-Lat A1 cells. The following applies: 25 μM or 50 μM RSV. How it is done: as §4
Assay [5] concerns latent HIV in resting CD4+ T cells from HIV-infected individuals under ART. Nature of the assay: Quantitative Viral Outgrowth Assay (QVOA), p24 ELISA. The following applies: resting CD4+ T cells from 5 HIV-infected individuals under ART; ex vivo. How it is done:
It was tested whether the histone crotonylation inducer, sodium crotonate, can reactivate latent HIV reservoirs from a patient under ART. Peripheral blood samples were obtained from 5 HIV-infected individuals with undetectable plasma viral loads and higher CD4+ T cell numbers (see Table 1). One million resting CD4+ T cells were treated with IL-2, PHA+IL-2, or IL-2+Na-Cro, and HIV p24 production was measured by QVOA using p24 ELISA as a measure of HIV reactivation.
Quantitative Viral Outgrowth Assay: Peripheral blood mononuclear cells (PBMC) were obtained from HIV-infected individuals on suppressive ART (n=5) by continuous-flow leukopheresis. Isolation of resting CD4+ T cells and quantification of replication competent virus was performed as previously described (see S. Dandekar, et al. Current HIV/AIDS reports 4, 10-15 (2007)). […] Cultures were scored as positive if p24 was detected at day 15 and was increased in concentration at day 19. […]

For assay [6], the system named is latent HIV in U1 cells. In words: Reactivation of latent HIV in U1 cells by RT-qPCR. The procedure:
as §1, §2, §3

Where [7] appears, read: primary CD4+ T cells of 6 patients, 40 mM Na-Cro or 12 nM PEP005, ddPCR.

A value given as a limit tells only on which side of the number the result lay.

As to `NCC(=O)Nc1ccc(-n2nc(C(F)(F)F)cc2-c2ccc3c(ccc4ccccc43)c2)cc1` [AR12, reference compound], the “decrease in latent HIV reactivation by Na-Cro” value in assay [1] (pretreatment with AR12 for 30 minutes, then Na-Cro) was greater than 60%. In assay [2], the “histone crotonylation at HIV LTR” value is listed as “markedly dampened”.
Regarding `Nc1ncn([C@H]2C[C@H](O)[C@@H](CO)O2)c(=O)n1` [AZA-dC], the “reactivation of latent HIV by epigenetic modifiers” value in assay [1] (J-Lat A1 cells) is “minimally reactivated latent HIV”.
Take `CCCc1cc(C)[nH]c(=O)c1CNC(=O)c1cc(-c2ccnc(N3CCN(C)CC3)c2)cc2c1cnn2C(C)C` [GSK343]: in assay [1] (J-Lat A1 cells), the “synergistic effect on HIV reactivation in combination with Na-Cro” value is listed as “did not show any synergistic effect” and the “reactivation of latent HIV by epigenetic modifiers” value is “minimally reactivated latent HIV”.
On to `Cc1sc2c(c1C)C(c1ccc(Cl)cc1)=N[C@@H](CC(=O)OC(C)(C)C)c1nnc(C)n1-2` [JQ1], for which the “increase in reactivation of latent HIV in combination with Na-Cro as compared to single treatment” value (“increase in reactivation of latent HIV” below) in assay [1] amounted to 1.8 fold.
Turning to `NC(=O)c1cccnc1` [NAM, nicotinamide], the “viral reactivation after pretreatment” value in assay [1] (J-Lat A1 cells, 1 mM NAM pretreatment then 30 mM Na-Cro) is reported as “less than 4 fold”.
Take `C/C=C(/C)C(=O)O[C@H]1C(C)=C[C@]23C(=O)[C@@H](C=C(CO)[C@@H](O)[C@]12O)[C@H]1[C@@H](C[C@H]3C)C1(C)C` [PEP005, ingenol-3-angelate]: in assay [3] (setting [7]), the “elongation of HIV transcripts (long LTR), patients responding” value was 5 of 6 patient samples; the “full-length transcription of HIV (poly A region), patients responding” value is 5 of 6 patient samples; the “initiation of HIV transcription (TAR region), patients responding” value is given as “all six patients”. Moreover, the “reactivation of latent HIV, combination of Na-Cro with PEP005” value in assay [3] (primary CD4+ T cells, 12 nM PEP005 combined with 40 mM Na-Cro, also higher than PMA/Ionomycin) is on record as “greater reactivation of latent HIV than either agent alone”. Further, the “increase in reactivation of latent HIV” value in assay [1] was found to be 8 fold.
For the compound `Oc1ccc(C=Cc2cc(O)cc(O)c2)cc1` [RSV, Resveratrol], the “increase in expression of sirt3” value in assay [4] is on record as “two to three”. Further, in assay [1] (J-Lat A1 cells, 50 μM RSV pretreatment then 30 mM Na-Cro, compared to crotonyl-CoA alone), the “crotonyl-CoA-mediated latent HIV reactivation after pretreatment” value is on record as 27 fold.
For the compound `O=C(CCCCCCC(=O)Nc1ccccc1)NO` [SAHA, suberoylanilide hydroxamic acid], the “replication-competent HIV recovered (HIV reactivation, QVOA)” value in assay [5] is given as “able to flush out the latent HIV in these patient cells except for one patient”. In addition, the “increase in reactivation of latent HIV” value in assay [1] was 2.0 fold. For the same compound, the “HIV reactivation, pretreatment with SAHA followed by Na-Cro addition” value in assay [1] (J-Lat A1 cells, 250 nM SAHA then 40 mM Na-Cro overnight) is on record as “abolished the combination effect”; in assay [6] (500 nM SAHA then 40 mM Na-Cro) it was “abolished the combination effect”. Moreover, the “reactivation of latent HIV by epigenetic modifiers” value in assay [1] (J-Lat A1 cells) is given as “comparable capacity to reactivate latent HIV”. In addition, in assay [6] (40 mM Na-Cro then 500 nM SAHA, overnight, real-time PCR), the “HIV reactivation, pretreatment with Na-Cro then SAHA, compared with SAHA alone” value was “enhanced SAHA-reactivation of latent HIV”.
Turning to `CCC/C=C/C=C/C(=O)O[C@H]1/C(=C/C(=O)OC)C[C@H]2C[C@H]([C@@H](C)O)OC(=O)C[C@H](O)C[C@@H]3C[C@H](OC(C)=O)C(C)(C)[C@](O)(C[C@@H]4C/C(=C/C(=O)OC)C[C@H](/C=C/C(C)(C)[C@]1(O)O2)O4)O3` [bryostatin-1], in assay [1], the “increase in reactivation of latent HIV” value came to 3.3 fold.
